PubChem BioAssay AID687000 (Broad Institute, 2013)
Where “and” joins values, the source holds several entries; their conditions need not be identical. Equal values may be shown once. Calls of active or inactive are those of the source.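 How the source made its calls: active means fitted dose curve reaches 40% lysis signal rise at or below the highest valid concentration tested for that sample; inconclusive means flat fit between 30% and 70%, or poor curve fit; inactive means signal falls, stays flat within 30%, or no crossing.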

The compounds below were run on C. neoformans lysis, adenylate kinase release luminescence, 4 h (assay: inducers of Cryptococcus neoformans cell lysis, dose response, AK release luminescence, cherry-picks (AID 687000)).
Compound `O=C(NC(=S)Nc1ccc(Br)cc1)C1CCC1` has an AC40 of 1.05 µM. `O=C(NC(=S)NCC1COc2ccccc2O1)c1ccc(Cl)cc1` (configuration not stated) gave an AC40 of 3.44 µM. With `Cc1noc(C)c1NC(=O)Nc1ccc2c(c1)C(=O)N([C@@H](C)CO)C[C@H](C)[C@H](CN(C)CC1CCCCC1)O2` the AC40 was > 15 µM (inactive). `COC(=O)C1=C(C)N(Cc2ccc(Cl)cc2)C(=S)NC1c1ccc(F)cc1` (configuration not stated) was tested, and the AC40 was 2.23 µM and 3.73 µM. `COC(=O)C1=C(C)N(Cc2ccc(Cl)cc2)C(=S)NC1c1cccc(OC)c1` (configuration not stated) showed an AC40 of 3.04 µM. `O=C(C1CCOCC1)N1CC[C@@H]2[C@@H](CO)Nc3ccc(Br)cc3[C@@H]21` was tested, and the AC40 was > 15 µM (inactive). In the case of `O=C(CSc1ncnc2c1cnn2-c1cccc(Cl)c1)NCC1CCCO1` (configuration not stated), the AC40 is reported as > 15 µM (inactive). Work on `Fc1ccccc1NC(=S)NN(Cc1ccccc1)c1ccccc1` yielded an AC40 of 5.17 µM. For `S=C(Nc1ccccc1Oc1ccccc1)Nc1cccc(Cl)c1Cl`, the AC40 was > 15 µM (inactive). `O=C(Cc1ccccc1)N[C@H]1C=C[C@@H](CC(=O)N2CCOCC2)O[C@@H]1CO` was tested, and the AC40 was 4.91 µM. `Cc1ccc(OCCn2c(=S)[nH]c3ccccc32)c(C(C)C)c1` showed an AC40 of 0.883 µM. `CC(C)NC(=O)Nc1ccc2c(c1)C(=O)N([C@@H](C)CO)C[C@@H](C)[C@@H](CN(C)C(=O)NC(C)C)OCCCC[C@@H](C)O2` was tested, and the AC40 was > 15 µM (inactive). In the case of `COCC(=O)NC[C@H]1N[C@H](CO)[C@H]1c1ccc(C2=CCCC2)cc1`, the AC40 is reported as > 15 µM (inactive). With `C[C@@H]1CN([C@H](C)CO)S(=O)(=O)c2ccc(C#C[C@@H](C)O)cc2O[C@@H]1CN(C)Cc1ccncc1` the AC40 was > 15 µM (inactive). With `CCCNC(=O)C[C@@H]1CC[C@@H]2[C@H](COc3ccc(NC(=O)CCC)cc3C(=O)N2C)O1` the AC40 was > 15 µM (inactive). Compound `CCc1ccc(C(C)NC(=S)NCc2ccc(F)cc2)cc1` (configuration not stated) has an AC40 of 0.511 µM. With `C[C@H]1CN([C@@H](C)CO)C(=O)c2cc(NC(=O)Nc3ccc(F)cc3)ccc2O[C@@H]1CN(C)S(C)(=O)=O` the AC40 was > 15 µM (inactive). `COC(=O)C1=C(C)N(Cc2ccc(F)cc2)C(=S)NC1c1cccc(Cl)c1` (configuration not stated) was tested, and the AC40 was 2.41 µM and 3.17 µM. `COC(=O)C1=C(C)N(Cc2ccccc2)C(=S)NC1c1ccc(Br)cc1` (configuration not stated) was tested, and the AC40 was 2.58 µM. For `C[C@H](CO)N1C[C@H](C)[C@@H](CN(C)Cc2ccc(-c3ccccc3)cc2)Oc2ccc(NC(=O)Nc3ccc(C(F)(F)F)cc3)cc2C1=O`, the AC40 was > 15 µM (inactive). With `COCCNC(=O)C[C@H]1C[C@@H]2c3cc(NC(=O)C4CCC4)ccc3O[C@@H]2[C@H](CO)O1` the AC40 was > 15 µM (inactive). For `C[C@@H]1CN([C@@H](C)CO)C(=O)c2cc(NC(=O)C3CC3)ccc2O[C@H]1CN(C)CC1CCCCC1`, the AC40 was > 15 µM (inactive). With `Cc1ccc(CSc2ncnc3c2cnn3-c2ccc(C)cc2)cc1` the AC40 was > 15 µM (inactive). With `COC(=O)C1=C(C)N(Cc2ccc(F)cc2)C(=S)NC1c1cccc(Br)c1` (configuration not stated) the AC40 was 6.51 µM. `COC(=O)C1=C(C)N(Cc2ccc(F)cc2)C(=S)NC1c1ccccc1` (configuration not stated) was tested, and the AC40 was 2.68 µM. `COc1cccc(NC(=S)N2CCC(Cc3ccccc3)CC2)c1` gave an AC40 of 3.35 µM. In the case of `CC(C)NC(=O)N[C@H]1CC[C@@H](CCNC(=O)C2CC2)O[C@H]1CO`, the AC40 is reported as > 15 µM (inactive). With `COC(=O)C1=C(C)N(CC(C)C)C(=S)NC1c1ccc(Cl)cc1` (configuration not stated) the AC40 was 2.36 µM and 0.971 µM. `COC(=O)C1=C(C)N(Cc2ccccc2)C(=S)NC1c1ccc(Cl)cc1` (configuration not stated) showed an AC40 of 2.45 µM. In the case of `O=C(Nc1ccccc1N1CCOCC1)c1cccc([N+](=O)[O-])c1`, the AC40 is reported as > 7.5 µM (inactive). `CCCCNC(=S)N/N=C/c1ccc(C#N)cc1` was tested, and the AC40 was 4.58 µM. With `S=C(Nc1cccc(Cl)c1)Nc1ccccc1Oc1ccccc1` the AC40 was > 15 µM (inactive). In the case of `CCCN1C[C@H](C)[C@@H](OC)CN(C)C(=O)c2cc(NC(=O)c3cccc(F)c3)ccc2OC[C@@H]1C`, the AC40 is reported as > 15 µM (inactive). For `CC(C)c1ccccc1NC(=S)NN(Cc1ccccc1)c1ccccc1`, the AC40 was > 15 µM (inactive). `O=C(N[C@H]1CC[C@H](CCn2cc(-c3ccccn3)nn2)O[C@H]1CO)c1ccc(F)cc1` was tested, and the AC40 was > 15 µM (inactive). For `COC(=O)C1=C(C)N(Cc2ccc(Br)cc2)C(=S)NC1c1ccc(F)cc1` (configuration not stated), the AC40 was 4.62 µM and 7.82 µM. `COC(=O)C1=C(C)N(Cc2ccccc2)C(=S)NC1c1cccc(Br)c1` (configuration not stated) was tested, and the AC40 was 3.56 µM and > 15 µM (inactive).
